The values that follow come from ChEMBL document CHEMBL5154780, “Target Fishing Reveals a Novel Mechanism of 1,2,4-Oxadiazole Derivatives Targeting Rpn6, a Subunit of 26S Proteasome” (J Med Chem, 2022).

Data set [1] deals with HepG2-ARE-C8. Briefly: Activation of Nrf2-ARE pathway in human HepG2-ARE-C8 cells assessed as fold upregulation of ARE-inducing luciferase activity at 10 uM measured after 24 hrs by luciferase reporter gene assay. Format: cell-based. Conditions: filed as activator.
Data set [2] relates to HepG2-ARE-C8. Briefly: Activation of Nrf2-ARE pathway in human HepG2-ARE-C8 cells assessed as fold upregulation of ARE-inducing luciferase activity at 20 uM measured after 24 hrs by luciferase reporter gene assay. Format: cell-based. As to conditions: filed as activator.
In data set [3] the test system is HepG2-ARE-C8. Briefly: Activation of Nrf2-ARE pathway in human HepG2-ARE-C8 cells assessed as fold upregulation of ARE-inducing luciferase activity at 40 uM measured after 24 hrs by luciferase reporter gene assay. In kind it is cell-based. As to conditions: filed as activator.
The test system of data set [4] is HepG2-ARE-C8. The data set is described as follows: Activation of Nrf2-ARE pathway in human HepG2-ARE-C8 cells assessed as fold upregulation of ARE-inducing luciferase activity at 80 uM measured after 24 hrs by luciferase reporter gene assay. In kind it is cell-based. As to conditions: filed as activator.
Data set [5] deals with HepG2-ARE-C8. The data set is described as follows: Activation of Nrf2-ARE pathway in human HepG2-ARE-C8 cells assessed as fold upregulation of ARE-inducing luciferase activity at 160 uM measured after 24 hrs by luciferase reporter gene assay. Format: cell-based. Conditions: filed as activator. For orientation: In a reporter assay the amount or activity of a reporter protein is the signal.

Data set [6] deals with THP-1. Briefly: Antiinflammatory activity in PMA-differentiated and LPS-stimulated human THP-1 cell model assessed as inhibition of NLRP3 inflammasome-driven IL-1beta production at 15 uM incubated for 24 hrs followed by LPS stimulation for 3 hrs and ATP addition for 1 hr by ELISA. In kind it is functional. Details: scale not given: the % may be the effect or the level left. (In general: ELISA stands for enzyme-linked immunosorbent assay.)

For data set [7], the system named is THP-1. Briefly: Antiinflammatory activity in PMA-differentiated and LPS-stimulated human THP-1 cell model assessed as inhibition of NLRP3 inflammasome-driven IL-1beta production at 30 uM incubated for 24 hrs followed by LPS stimulation for 3 hrs and ATP addition for 1 hr by ELISA. In kind it is functional. Details: scale not given: the % may be the effect or the level left.

Data set [8] concerns THP-1. The data set is described as follows: Antiinflammatory activity in PMA-differentiated and LPS-stimulated human THP-1 cell model assessed as inhibition of NLRP3 inflammasome-driven IL-1beta production at 45 uM incubated for 24 hrs followed by LPS stimulation for 3 hrs and ATP addition for 1 hr by ELISA. Format: functional. Details: scale not given: the % may be the effect or the level left.

Data set [9] is described as follows: Cytotoxicity against human THP-1 cells assessed as reduction in cell viability measured after 24 hrs by MTT assay. In kind it is toxicity, cell-based. (Tetrazolium dyes change colour on reduction, which living cells bring about.)
Data set [10] concerns the target T1, Nuclear factor erythroid 2-related factor 2 (Rattus norvegicus) (UniProt O54968).
T1 sequence (whole entry): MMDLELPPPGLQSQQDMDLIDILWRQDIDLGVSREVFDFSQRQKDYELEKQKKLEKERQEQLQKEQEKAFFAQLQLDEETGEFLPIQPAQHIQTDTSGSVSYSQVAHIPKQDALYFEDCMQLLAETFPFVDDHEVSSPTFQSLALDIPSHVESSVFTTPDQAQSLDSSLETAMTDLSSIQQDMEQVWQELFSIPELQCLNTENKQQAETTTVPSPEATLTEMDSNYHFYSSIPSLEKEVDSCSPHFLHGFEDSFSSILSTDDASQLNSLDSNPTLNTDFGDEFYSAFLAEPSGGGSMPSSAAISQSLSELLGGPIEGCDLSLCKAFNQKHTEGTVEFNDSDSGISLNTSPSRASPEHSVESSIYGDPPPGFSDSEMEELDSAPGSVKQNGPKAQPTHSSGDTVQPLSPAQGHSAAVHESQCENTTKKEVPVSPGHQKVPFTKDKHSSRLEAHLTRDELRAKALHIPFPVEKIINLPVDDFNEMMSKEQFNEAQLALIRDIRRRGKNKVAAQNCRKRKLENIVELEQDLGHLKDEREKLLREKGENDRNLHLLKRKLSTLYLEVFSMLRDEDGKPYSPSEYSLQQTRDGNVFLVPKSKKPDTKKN
The data set is described as follows: Activation of Nrf2 in rat PC-12 cells assessed as upregulation of HO-1 protein expression measured after 24 hrs by Western blot analysis. Format: cell-based. Conditions: filed as activator, dose 10-40 µM, DDE = dose-dependent effect.

Data set [11] concerns the target T1, Nuclear factor erythroid 2-related factor 2 (Rattus norvegicus). Briefly: Activation of Nrf2 in rat PC-12 cells assessed as upregulation of NQO1 protein expression measured after 24 hrs by Western blot analysis. As to conditions: filed as activator, dose 10-40 µM, DDE = dose-dependent effect. In kind it is cell-based.
The target is the same in data set [12]. The data set is described as follows: Activation of Nrf2 in rat PC-12 cells assessed as upregulation of Nrf2 protein expression measured after 24 hrs by Western blot analysis. Conditions: filed as activator, dose 10-40 µM, DDE = dose-dependent effect. In kind it is cell-based.
In data set [13] the test system is PC-12. The data set is described as follows: Cytoprotective activity against H2O2-induced oxidative damage in rat PC-12 assessed as increase in cell viability preincubated for 24 hrs followed by H2O2 stimulation for 3 hrs by MTT assay. In kind it is functional, cell-based. As to conditions: dose 5-80 µM, DDE = dose-dependent effect.
For data set [14], the target named is 26S proteasome non-ATPase regulatory subunit 11 (Homo sapiens, UniProt O00231). Briefly: Binding affinity to biotinylated recombinant Rpn6 (unknown origin) assessed as dissociation constant by biolayer interferometry analysis.
Chain of 26S proteasome non-ATPase regulatory subunit 11 (O00231 whole entry): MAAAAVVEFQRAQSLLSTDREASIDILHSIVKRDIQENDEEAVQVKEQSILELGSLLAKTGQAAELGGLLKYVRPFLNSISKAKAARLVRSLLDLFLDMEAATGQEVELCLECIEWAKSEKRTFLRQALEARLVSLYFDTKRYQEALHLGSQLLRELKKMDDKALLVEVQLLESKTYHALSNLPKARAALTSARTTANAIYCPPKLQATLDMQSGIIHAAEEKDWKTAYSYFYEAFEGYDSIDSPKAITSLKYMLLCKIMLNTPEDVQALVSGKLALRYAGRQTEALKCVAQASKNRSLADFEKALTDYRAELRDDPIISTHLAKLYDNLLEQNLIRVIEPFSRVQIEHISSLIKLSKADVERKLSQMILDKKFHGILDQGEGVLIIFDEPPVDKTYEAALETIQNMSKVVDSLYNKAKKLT
In data set [15] the target is 26S proteasome non-ATPase regulatory subunit 11 (Rattus norvegicus) (UniProt F1LMZ8). The data set is described as follows: Binding affinity to biotinylated recombinant Rpn6 in rat PC-12 cells at 100 to 200 uM incubation for overnight by pull-down assay based SDS-PAGE analysis. In kind it is cell-based. Conditions: filed as activator, dose 100-200 µM, DDE = dose-dependent effect.
Chain of 26S proteasome non-ATPase regulatory subunit 11 (Rattus norvegicus) (F1LMZ8 whole entry): as the sequence (O00231 whole entry) above

In data set [16] the target is T1, Nuclear factor erythroid 2-related factor 2 (Rattus norvegicus). Briefly: Activation of Nrf2 in rat PC-12 cells assessed as reduction of Nrf2 in cytoplasm at 20 uM measured after 4 hrs by western blot analysis. In kind it is cell-based. As to conditions: filed as activator.
Data set [17] shares this target. Briefly: Activation of Nrf2 in rat PC-12 cells assessed as upregulation of Nrf2 in nucleus at 20 uM measured after 4 hrs by western blot analysis. Format: cell-based. As to conditions: filed as activator.
Data set [18] deals with PC-12. The data set is described as follows: Induction of cell membrane permeability in rat PC-12 cells at 60 uM measured after 10 hrs by fluorescence microscopic analysis. Format: cell-based.
The target in data set [19] is 26S proteasome non-ATPase regulatory subunit 11 (Rattus norvegicus) (UniProt F1LMZ8). Briefly: Binding affinity to recombinant Rpn6 in rat PC-12 cells at 60 uM measured after 12 hrs by DAPI staining based fluorescence microscope assay. Format: cell-based. As to conditions: filed as activator.
The target in data set [20] is T1, Nuclear factor erythroid 2-related factor 2 (Rattus norvegicus). Briefly: Inhibition of Nrf2 degradation in rat PC-12 cells assessed as accumulation of ubiquitinated Nrf2 at 40 uM incubated for 6 hrs by Western blot analysis. Format: cell-based.
The target is the same in data set [21]. The data set is described as follows: Inhibition of Nrf2 degradation in rat PC-12 cells assessed as accumulation of ubiquitinated Nrf2 at 40 uM incubated for 6 hrs in presence of proteasome inhibitor MG132 by Western blot analysis. In kind it is cell-based.
Data set [22] has the same target. The data set is described as follows: Inhibition of Nrf2 degradation in rat PC-12 cells assessed as increase in ubiquitinated Nrf2 at 40 uM incubated for 6 hrs by co-immunoprecipitation based Western blot analysis. In kind it is cell-based.
For data set [23] the target is unchanged. The data set is described as follows: Inhibition of Nrf2 degradation in rat PC-12 cells assessed as increase in ubiquitinated Nrf2 at 40 uM incubated for 6 hrs in presence of proteasome inhibitor MG132 by co-immunoprecipitation based Western blot analysis. In kind it is cell-based.
Data set [24] has the same target. Briefly: Inhibition of Nrf2 degradation in rat PC-12 cells assessed as accumulation of ubiquitinated Nrf2 at 10 uM incubated for 6 hrs by Western blot analysis. In kind it is cell-based.

Calls of active or inactive are those of the source. No cut-off for these calls is given here. Where a SMILES comes first, the peptide text is derived from it. The star is where a group is joined. Cbz = O=C(OCc1ccccc1)*

In the case of `CC(C)(C)c1cc(O)ccc1O` [E319], the fold change (FC) in data set [1] worked out at 2.94; in [2], 3.13; in data set [3], 2.98; in data set [4], 12; in [5], 15.9. For the same compound, the Activity is 50.88% in data set [6], 58.58% in data set [7] and 98.29% in [8]. Also, the IC50 at 24 h in data set [9] is > 100 µM.

In the case of `Cc1ccc(-c2noc(-c3ccc(F)cc3NC(=O)CCCCCNC(=O)CCCC[C@@H]3SC[C@@H]4NC(=O)N[C@@H]43)n2)cn1`, the fold change (FC) was determined as 4.96 in data set [1]; 5.59 in [2]; 6.69 in [3]; 7.1 in data set [4]; 11.8 in data set [5]. In addition, the Activity result in data set [10] is “Dde”; in data set [11], “Dde”; in [12], “Dde”; in data set [13], “Dde”; in data set [6], 33.81%; in data set [7], 64.61%. Also, the results for the Activity in data set [8] and in data set [15] were 97.72% and “Dde”, respectively. Besides, in [9], the IC50 at 24 h was > 100 µM. Moreover, in [14], the Kd came out at 1.38 µM. Also, the result in data set [16] and in data set [17] was Active.

Take `Cc1ccc(-c2noc(-c3ccc(F)cc3NC(=O)CCCCCNC(=S)Nc3ccc4c(c3)C(=O)OC43c4ccc(O)cc4Oc4cc(O)ccc43)n2)cn1`: the fold change (FC) is 2.62 in data set [1]; 2.28 in data set [2]; 2.3 in data set [3]; 2.71 in data set [4]; 6.42 in [5]. In addition, the values for the Activity in data set [6], in data set [7] and in data set [8] were 67.9%, 77.63% and 89.34%, respectively. For the same compound, the IC50 at 24 h in data set [9] is > 100 µM. In addition, the outcome in data set [18] and in [19] was Active.

As for `O=C(O)CCCC[C@@H]1SC[C@@H]2NC(=O)N[C@@H]21`, the fold change (FC) was 1.55 in data set [1]; 1.12 in [2]; 1.18 in data set [3]; 1.45 in [4]; 1.55 in data set [5].

For `Fc1ccc(-c2nc(-c3ccc4nc[nH]c4c3)no2)cc1`, the fold change (FC) in data set [1] was found to be 4.53; in data set [2], 4.19; in data set [3] it was 7.5; in data set [4], 19.3; in [5], 31.5. For the same compound, the Activity in data set [6] turned out to be 87.24%; in data set [7], 98.39%; in [8], 102.6%. The IC50 at 24 h in data set [9] is > 100 µM. Moreover, the Kd in [14] amounted to 8.53 µM. In addition, the result in data set [20], in data set [21], in data set [22] and in data set [23] was Active.

`CCNC(=O)CCCCCNC(C)=O`: the fold change (FC) in data set [1] is 1.17; in data set [2] it was 1.17; in [3], 1.41; in [4] it was 1.22; in data set [5] it was 1.22. Further, the Activity in data set [6] was -2.73%; in data set [7] it was 3.52%; in [8] it was 2.89%. Moreover, the half-maximal inhibitory concentration (IC50) at 24 h in data set [9] is > 100 µM.

In the case of `Cc1ccc(-c2noc(-c3ccc(F)cc3)n2)cn1`, the fold change (FC) is 2.08 in [1]; 2.75 in data set [2]; 7.14 in [3]; 31.7 in data set [4]; 29.6 in [5]. The Activity entry was “Dde” in data set [10]; “Dde” in data set [11]; “Dde” in [12]; 49.86% in data set [6]; 53.91% in [7]; 85.46% in data set [8]. Moreover, in data set [9], the IC50 at 24 h was > 100 µM. Besides, the result in data set [16] and in [17] was Active.

Regarding `CC(C)C[C@@H](C=O)NC(=O)[C@H](CC(C)C)NC(=O)[C@H](CC(C)C)NC(=O)OCc1ccccc1` (Cbz-Leu-Leu-Leu-aldehyde), the result in data set [24] was Active.

As a reminder, the IC50 is the concentration at which inhibition is half-maximal. A word on the Kd: it is the concentration at which binding is half-saturated.
